# Entries after “also recorded” stand apart in the source; their conditions may differ.
# Tests used:
# Piezo1 = target: T1, Piezo1 (Mus musculus, UniProt E2JF22); test: qPCR gene expression of Wnt1, Ptgs2 and Tnfrsf11b in MLO-Y4 cells; format: cell-based, murine; conditions: 10 μM, 2 hours
# T1 construct: To identify Piezo1 stimulators, we treated MLO-Y4 cells with compounds; endogenous in cells; host or cells: MLO-Y4 (murine osteocyte-like cell line); control sh-Luc cells, with sh-Piezo1 knock-down cells as the specificity control
# T1 sequence (E2JF22 whole entry): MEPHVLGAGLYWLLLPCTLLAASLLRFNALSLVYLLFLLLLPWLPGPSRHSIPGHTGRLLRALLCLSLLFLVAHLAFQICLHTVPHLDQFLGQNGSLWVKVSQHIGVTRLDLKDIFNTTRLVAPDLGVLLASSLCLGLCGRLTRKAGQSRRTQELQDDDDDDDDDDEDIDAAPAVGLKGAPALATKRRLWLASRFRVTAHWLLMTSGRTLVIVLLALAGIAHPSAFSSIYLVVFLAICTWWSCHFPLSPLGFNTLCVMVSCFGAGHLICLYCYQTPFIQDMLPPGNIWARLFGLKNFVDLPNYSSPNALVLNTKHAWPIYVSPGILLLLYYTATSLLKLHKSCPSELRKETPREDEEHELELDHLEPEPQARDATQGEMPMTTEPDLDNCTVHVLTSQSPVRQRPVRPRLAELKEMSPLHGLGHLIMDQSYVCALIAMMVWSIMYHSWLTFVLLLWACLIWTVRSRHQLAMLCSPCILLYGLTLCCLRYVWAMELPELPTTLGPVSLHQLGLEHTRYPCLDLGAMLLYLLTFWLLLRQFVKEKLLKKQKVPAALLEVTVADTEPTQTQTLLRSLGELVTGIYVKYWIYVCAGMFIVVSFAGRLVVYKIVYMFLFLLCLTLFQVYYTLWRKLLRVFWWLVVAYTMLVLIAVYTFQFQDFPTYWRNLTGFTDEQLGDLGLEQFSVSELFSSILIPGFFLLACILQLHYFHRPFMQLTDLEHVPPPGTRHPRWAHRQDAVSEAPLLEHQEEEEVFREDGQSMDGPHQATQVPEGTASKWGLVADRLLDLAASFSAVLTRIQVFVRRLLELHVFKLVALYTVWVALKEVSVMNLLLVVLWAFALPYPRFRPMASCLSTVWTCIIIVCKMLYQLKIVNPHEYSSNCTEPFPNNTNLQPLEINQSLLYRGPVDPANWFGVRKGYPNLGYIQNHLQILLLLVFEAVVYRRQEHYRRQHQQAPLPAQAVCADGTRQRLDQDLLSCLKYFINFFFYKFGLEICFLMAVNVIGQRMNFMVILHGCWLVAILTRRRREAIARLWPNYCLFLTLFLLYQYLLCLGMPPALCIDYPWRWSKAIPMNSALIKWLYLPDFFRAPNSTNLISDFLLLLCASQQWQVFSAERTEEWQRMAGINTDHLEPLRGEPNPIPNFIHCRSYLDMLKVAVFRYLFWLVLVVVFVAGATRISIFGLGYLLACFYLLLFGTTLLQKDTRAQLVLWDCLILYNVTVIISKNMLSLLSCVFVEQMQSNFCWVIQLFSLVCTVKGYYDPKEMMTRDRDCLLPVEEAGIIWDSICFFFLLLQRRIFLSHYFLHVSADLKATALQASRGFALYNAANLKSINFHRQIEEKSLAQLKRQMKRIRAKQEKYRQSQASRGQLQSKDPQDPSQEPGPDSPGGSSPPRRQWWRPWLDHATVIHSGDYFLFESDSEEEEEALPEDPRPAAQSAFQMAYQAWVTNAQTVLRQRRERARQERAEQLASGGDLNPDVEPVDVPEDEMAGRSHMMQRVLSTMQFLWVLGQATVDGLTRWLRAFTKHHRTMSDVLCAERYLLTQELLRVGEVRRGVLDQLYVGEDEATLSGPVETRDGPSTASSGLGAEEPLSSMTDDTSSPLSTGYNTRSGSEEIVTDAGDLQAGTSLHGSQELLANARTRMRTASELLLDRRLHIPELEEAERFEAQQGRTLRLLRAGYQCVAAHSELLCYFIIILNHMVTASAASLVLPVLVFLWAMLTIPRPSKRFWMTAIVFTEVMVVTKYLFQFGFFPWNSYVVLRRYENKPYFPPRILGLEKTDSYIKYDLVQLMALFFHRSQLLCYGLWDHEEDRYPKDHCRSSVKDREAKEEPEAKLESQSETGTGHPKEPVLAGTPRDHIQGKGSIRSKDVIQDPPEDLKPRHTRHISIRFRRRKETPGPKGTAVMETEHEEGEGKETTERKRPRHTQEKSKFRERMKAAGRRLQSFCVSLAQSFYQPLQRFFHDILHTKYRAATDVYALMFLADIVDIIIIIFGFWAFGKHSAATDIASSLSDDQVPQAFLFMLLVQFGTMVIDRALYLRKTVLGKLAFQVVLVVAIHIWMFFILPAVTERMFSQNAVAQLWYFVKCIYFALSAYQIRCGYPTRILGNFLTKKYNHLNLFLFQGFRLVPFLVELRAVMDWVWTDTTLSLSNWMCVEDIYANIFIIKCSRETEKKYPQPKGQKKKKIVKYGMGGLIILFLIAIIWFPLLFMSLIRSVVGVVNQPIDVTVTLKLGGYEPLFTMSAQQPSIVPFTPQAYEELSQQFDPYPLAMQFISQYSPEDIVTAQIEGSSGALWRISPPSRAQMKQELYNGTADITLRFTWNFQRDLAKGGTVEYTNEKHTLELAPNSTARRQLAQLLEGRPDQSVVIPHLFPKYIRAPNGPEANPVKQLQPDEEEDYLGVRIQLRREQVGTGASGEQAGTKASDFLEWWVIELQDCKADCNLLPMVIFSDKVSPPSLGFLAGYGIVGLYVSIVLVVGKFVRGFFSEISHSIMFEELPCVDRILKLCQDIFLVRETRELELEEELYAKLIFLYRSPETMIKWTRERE
# Experimental: Cell cultures. MLO-Y4 cells were cultured in α-MEM supplemented with 5% FBS, 5% BCS, and 1% penicillin/streptomycin/glutamine. Fifteen dynes/cm^2 oscillatory fluid shear stress was applied on MLO-Y4 cells at 1 Hz for 2 hours using an IBDI pump system (IBIDI, German). For Yoda1 treatment, cells were cultured in the presence of 10 μM Yoda1 (Sigma, St. Louis, MO) or DMSO for 2 hours. Immediately after the treatments, we isolated RNA from cells using RNeasy mini kit (Qiagen, German) for qPCR or RNA-seq analysis. To silence Piezo1, we generated Piezo1 shRNA expression plasmid using the following oligonucleotides in the pLKO.1-TRC cloning vector (Addgene Plasmid #10878, a gift from David Root): forward oligo: 5′-CCGGTC-[…]-3′ (SEQ ID NO: 1); reverse oligo: 5′-[…]-CGA-3′ (SEQ ID NO: 2) (Zhang et al., 2017). Yap1 shRNA (TRCN0000238432) and Taz shRNA (TRCN0000095951) were purchased from Sigma (St. Louis, MO). A shRNA against firefly luciferase was used as a control (Sigma, St. Louis, MO). For virus production, HEK293T cells were cultured in a 6-well culture plate and co-transfected with a total 3 μg of lentiviral shRNA vector, pMD2G (Addgene plasmid #12259, a gift from Didier Trono), and psPAX2 (Addgene plasmid #12260, a gift from Didier Trono) at the ratio of 2:0.9:0.4 using TransIT-LT1 transfection reagent (Mirus, Madison, WI). Culture media was changed 12 hours after transfection and viral supernatants were collected 48 hours after media change. Viral supernatants were filtered through a 0.45 μm filter and used immediately to transduce cells cultured in a 10 cm dish. Cells were then subjected to selection with G418 (100 μg/ml) or puromycin (25 μg/ml) for 5 days before treatment. To overexpress Piezo1 in MLO-Y4 cells, we transfected mPiezo1-IRES-eGFP (Addgene plasmid #80925, a gift from Ardem Patapoutian) into MLO-Y4 cells using TransIT-LT1 transfection reagent (Mirus, Madison, WI) and then treated these cells with 15 dynes/cm^2 oscillatory fluid shear stress at 1 Hz for 2 hours. Plasmids for expression of Cas9 and sgRNAs for knocking out Piezo1 in UAMS-32 cells were prepared by inserting oligonucleotides encoding the desired sgRNA sequence into the pX458 vector using the protocol recommended by the Zhang laboratory (Cong et al., 2013). Plasmids expressing Cas9 and Piezo1 sgRNAs were transfected into UAMS-32 cells using TransIT-LT1 transfection reagent (Mirus, Madison, WI). Cells were sorted into 96-well plates for single cell cloning 48 hours after transfection. Single cell colonies were then screened for homozygous deletion using the following primers: Forward: 5′-[…]-3′ (SEQ ID NO: 5), Reverse: 5′-[…]-3′ (SEQ ID NO: 6). All homozygous mutant cell colonies were then pooled together for further analysis. Cas9 transfected cells were used as a control. All in vitro cell culture experiments were performed three times with three technical replicates.
# Quantitative PCR. Organs and whole bones were harvested from animals, removed of soft tissues, and stored immediately in liquid nitrogen. We prepared osteocyte-enriched bone by removing the ends of femurs and tibias and then flushing the bone marrow with PBS. We then scraped the bone surface with a scalpel and froze them in liquid nitrogen for later RNA isolation, or decalcified them for genomic DNA isolation. We isolated total RNA using TRIzol (Life technologies, NY), according to the manufacturer's instructions and prepared cDNA using High Capacity first strand cDNA synthesis kit (Life Technologies). We performed quantitative RT-PCR using the following Taqman assays from Applied Biosystems: Piezo1 (Mm01241549_m1); Piezo2 (Mm01265861_m1); Ptgs2 (Mm00478374_m1); Cyr61 (Mm00487498_m1); Wnt1 (Mm01300-555_g1); Yap1 (Mm011432-63_m1); Taz (Mm01289583_m1); Tnfsf11 Mm00441906_m1; Tnfrsf11b (Mm00435452_m1); Sost (Mm00470479_m1); and ribosomal protein S2 (Mrps2) (Mm00475529_m1). We calculated relative mRNA amounts using the ΔCt method (Livak and Schmittgen, 2001). […]
# MLO-Y4 cells = test: ATP production in MLO-Y4 cells; format: cell-based, murine; conditions: 30 minutes, different doses
# calvaria cells [1] = test: Oxygen consumption rate and ATP production (seahorse) in wildtype and Piezo1 knockout calvaria cells; format: cell-based; conditions: 10 μM, 1 hour; for changes in mitochondrial oxygen consumption rate in cells lacking Piezo1 / increases in ATP production in Piezo1 knockout cells: Piezo1 knockout calvaria cells
# Experimental: To determine whether activation of Piezo1 by Yoda1 or YW-3-170 is associated with increased mitochondrial function, we measured oxygen consumption rate and ATP production in calvaria cells treated by Yoda1 or YW-3-170. Wildtype and Piezo1 knockout calvarial cells were cultured in α-MEM medium supplemented with 10% fetal bovine serum and treated with 10 μM Yoda1 or YW-3-170 for 1 hour. Oxygen consumption rate and ATP production were measured using seahorse. […] Importantly, these increases were diminished in Piezo1 knockout cells.
# calvaria cells [2] = test: Mitochondria staining (MitoBright dye) in wildtype and Piezo1 knockout calvaria cells; format: cell-based; conditions: 10 μM, 24 hours; for increases in mitochondria staining in Piezo1 knockout cells: Piezo1 knockout calvaria cells; for mitochondria staining: wildtype calvaria cells
# Experimental: Next, we determined whether Yoda1 or YW-3-170 increase mitochondria number in primary calvaria cells. Wildtype and Piezo1 knockout calvarial cells were treated with 10 μM Yoda1 or YW-3-170 for 24 hours and then were stained for Mitochondria using MitoBright dye. […] However, these increases were blunted in Piezo1 knockout cells. […] The fluorescence intensity was quantified using the ImageJ software.
# [3] = Yap1/Taz knock-down MLO-Y4 cells
Structure (SMILES),Ptgs2 expression compared with vehicle (Piezo1; MLO-Y4 cells),Tnfrsf11b expression compared with vehicle (Piezo1; MLO-Y4 cells),Wnt1 expression compared with vehicle (Piezo1; MLO-Y4 cells),ATP production (MLO-Y4 cells),changes in mitochondrial oxygen consumption rate in cells lacking Piezo1 (calvaria cells [1]),increases in ATP production in Piezo1 knockout cells (calvaria cells [1]),ATP production (calvaria cells [1]; wildtype calvaria cells),mitochondrial oxygen consumption rate at basal level as well as stimulated level (calvaria cells [1]; wildtype calvaria cells),other results
Fc1ccc(Cl)c(CSc2nnc(-c3cnccn3)s2)c1Cl [YW-3-170],higher Ptgs2 expression,higher Tnfrsf11b expression,higher Wnt1 expression,increased ATP production in MLO-Y4 cells in a dose-dependent manner,significantly blunted,diminished,increase,increased,"Ptgs2 expression compared with positive control Yoda1 (Piezo1; MLO-Y4 cells): higher Ptgs2 expression than the positive control; Wnt1 expression compared with positive control Yoda1 (Piezo1; MLO-Y4 cells): higher Wnt1 expression than the positive control; ATP production compared with Yoda1 (calvaria cells [1]; wildtype calvaria cells): more ATP production than Yoda1; mitochondrial oxygen consumption rate at basal level as well as stimulated level (calvaria cells [1]; wildtype calvaria cells, listed as 170): increase; increases in mitochondria staining in Piezo1 knockout cells (calvaria cells [2]; listed as 170): requires Piezo1; increases in mitochondria staining in Piezo1 knockout cells (calvaria cells [2]; listed as compound I): blunted; stimulation of mitochondria staining compared with Yoda1 (calvaria cells [2]; calvaria cells): more potent stimulation of mitochondria staining than Yoda1; mitochondria staining (calvaria cells [2]; listed as 170): increase; mitochondria staining (calvaria cells [2]; listed as compound I): increased"
Clc1cccc(Cl)c1CSc1nnc(-c2cnccn2)s1 [Yoda1],stimulated expression; also recorded: higher Ptgs2 expression,stimulated expression; also recorded: higher Tnfrsf11b expression,stimulated expression; also recorded: higher Wnt1 expression,increased ATP production in MLO-Y4 cells in a dose-dependent manner,significantly blunted,diminished,stimulated; also recorded: increase,increase,"changes in gene expression (Ptgs2, Wnt1, Tnfrsf11b) after silencing of Piezo1 (Piezo1; Piezo1 knock-down MLO-Y4 cells): completely prevented; increase of Ptgs2 after silencing Yap1 and Taz (Piezo1; [3]): significantly blunted; increase of Tnfrsf11b after silencing Yap1 and Taz (Piezo1; [3]): significantly blunted; increase of Wnt1 after silencing Yap1 and Taz (Piezo1; [3]): significantly blunted; increases in mitochondria staining in Piezo1 knockout cells (calvaria cells [2]): blunted; also recorded: requires Piezo1; mitochondria staining (calvaria cells [2]): increase"

# Source: US20240059685A1, “PIEZO1 AGONISTS FOR THE PROMOTION OF BONE FORMATION” (BIOVENTURES, LLC, priority 2019, published 2024)
